These results are taken from patent US11939327B2, “Heterocyclic compounds” (Takeda Pharmaceutical Company Limited, priority 2017, dated 2024).

The target of one assay is T1, human GluR1 flip (Homo sapiens, UniProt P42261).
T1 construct: expressed in transfected cells; host or cells: CHO-K1
The assay can be described thus: AMPA receptor function-enhancing activity using calcium influx as index (CHO-K1/GluR1 flip/stargazin-expressing cells). The conditions noted are these: CHO-K1, test compound 30 μM with 3 mM glutamic acid, 100% = 3 mM glutamic acid + 300 μM cyclothiazide, 0% = 3 mM glutamic acid alone, read-out: hGluR1 flip/30 μM (%). It is filed as cell-based. From the text: Experimental Example 1 Measurement method of AMPA receptor function-enhancing activity of compound using calcium influx as index
(1) Construction of Expression Gene
Human GluR1 flip cDNA was amplified by PCR method using forward primer […] (SEQ ID NO: 1) and reverse primer […] (SEQ ID NO: 2) artificially synthesized using human brain-derived cDNA (BD Bioscience) as a template. The amplified product was digested with restriction enzymes EcoRI, NotI (TAKARA SHUZO CO. LTD.) and incorporated into the same site of pcDNA3.1(+) (Invitrogen) to construct pcDNA3.1(+)/human GluR1 flip gene. Human stargazin cDNA was amplified by PCR method using forward primer […] (SEQ ID NO: 3) and reverse primer […] (SEQ ID NO: 4) artificially synthesized using human hippocampus cDNA as a template. The amplified product was digested with restriction enzymes XhoI, BamHI (TAKARA SHUZO CO. LTD.) and incorporated into the same site of pcDNA3.1(−) (Invitrogen) to construct pcDNA3.1 Zeo(−)/human stargazing gene.
(2) Construction of GluR1 Flip/Stargazin Expressing Cell
CHO-K1 cells passaged in a culture medium (Ham's F12 medium (Invitrogen) added with 10% inactivated fetal bovine serum (Morgate) and penicillin, streptomycin (Invitrogen)) were detached using 0.05% trypsin and 0.53 mM EDTA (Invitrogen) diluted with D-PBS(−). The detached cells were suspended in a culture medium, and recovered by centrifugation at 1,000 rpm. The recovered cells were re-suspended in D-PBS(−) and added into 0.4 cm electroporation cuvette (BioRad). pcDNA3.1(+)/human GluR1 flip gene (5 μg) and pcDNA3.1 Zeo(−)/human stargazin gene (15 μg) were added, and introduced into CHO-K1 cells under the conditions of 950 μFd, […] and using Gene Pulser II (BioRad). The introduced cells were cultured overnight in a culture medium. The next day, using a selection medium (culture medium added with zeocin (Invitrogen) at 250 μg/mL), the cells were plated in a 96 well plate at 250 cells/well. The clones showing drug resistance were selected, and GluR1 flip/stargazin expression clones were selected by an assay method shown below using calcium influx as an index.
(3) Measurement Method of AMPA Receptor Function-Enhancing Activity of Compound, Using Calcium Influx as an Index
CHO-K1/GluR1 flip/stargazin-expressing cells were plated on a 384 well black bottom transparent plate, and cultured for 2 days in a CO2 incubator (SANYO ELECTRIC Co. Ltd.) at 37° C. The medium of the cell plate was removed. A calcium indicator (Calcium5 Assay Kit, Molecular Devices) was diluted with an assay buffer (HBSS (Thermo Fisher Scientific), 0.1% BSA (Merck Millipoer) and 10 mM HEPES (Thermo Fisher Scientific)), and 1.25 mM probenecid (Dojindo Laboratories) was added thereto. The mixture prepared above was added at 30 μL/well (100 μL/well in case of 96 wells) to the well, and the well was left standing in 37° C., CO2 incubator for 1 hr. The cell plate was set in CellLux (PerkinElmer), a mixture (15 μL) (50 μL/well in case of 96 wells) of […] glutamic acid (final concentration 3 mM) diluted with an assay buffer and a test compound (test compound concentration 30 μM) was added thereto, and variation in the amount of fluorescence was measured for 3 min. The variation of fluorescence level of a well added with final concentration 3 mM of glutamic acid and 300 μM cyclothiazide (TOCRIS) was defined as 100%, the variation of fluorescence level of a well added with final concentration 3 mM of glutamic acid alone was defined as 0%, and the activity of the compound was calculated by the following formula. activity (%)=(X−C)/(T−C)×100 • T: variation of fluorescence level of well added with final concentration 3 mM of glutamic acid and 300 μM cyclothiazide • C: variation of fluorescence level of well added with final concentration 3 mM of glutamic acid alone • X: variation of fluorescence level of well added with test compound

In another assay the test system is Long Evans rats. The assay can be described thus: Novel object recognition test. Conditions: male Long Evans rats; for Novel Object Interaction (%): 1 mg/kg p.o. 1 hr before acquisition trial and 1 hr before retention trial, retention trial 48 hr after acquisition, mean ± standard error; for novel object interaction (result in words): 1 mg/kg p.o., versus 0 mg/kg. Format: in vivo, rat. From the text:
Experimental Example 2 Novel Object Recognition Test
Male Long Evans rats were supplied by Japan SLC, and used at 7-week-old in the experiments. After arrival to the vivarium, animals were allowed a minimum of 1 week for acclimation. They were housed under a 12:12-h light/dark cycle in a temperature- and humidity-controlled laboratory and allowed food and water ad libitum.
A test compound was suspended in 0.5% methylcellulose in distilled water and orally administered (p.o.). All test compounds were dosed in a volume of 2 mL/kg body weight for rats.
(3) Novel Object Recognition Test
Novel object recognition test is a test system utilizing the novel object preference characteristics of rodents. This novel object recognition test consists of two trials, “acquisition trial” and “retention trial”, and, when an interval between these two trials is short, rodents spend a longer period for novel object exploration behaviors, and the preference dissipates as the interval gets longer. From this, the behavioral change in the novel object recognition test is considered to reflect the rodents' memory of the object during the acquisition trial. In this experimental example, the retention trial was carried out 48 hr after the acquisition trial. On the day before the test, for acclimation, Long-Evans rats were allowed to freely move about the test box (40×40×50 cm) for 10 minutes. On the test day, the rats were acclimated to the test room for about 1 hr prior to the test. The test compound (Compound A (Example 10), Compound B (Example 35), 1 mg/kg) were orally administered to the rats twice 1 hr before the acquisition trial and 1 hr before the retention trial. For the acquisition trial, two identical objects (A1, A2) were placed in the test box. The rats were put in the test box for 3 min, and the duration contacting each object was measured. The retention trial was carried out 48 hr after the acquisition trial. For the retention trial, the familiar object (A3) used for the acquisition trial and the novel object (B) different shape from A3 were placed in the test box. The rats were put in the test box for 3 min. The duration contacting each object in the acquisition trial and the retention trial, and the novel object interaction (%) was calculated. The novel object interaction (%) was expressed as (the duration contacting the novel object)/[(the duration contacting the novel object)+(the duration contacting the familiar object)]×100(%) at mean±standard error.

T1 sequence (P42261 19-906 isoform P42261-2 limits assumed): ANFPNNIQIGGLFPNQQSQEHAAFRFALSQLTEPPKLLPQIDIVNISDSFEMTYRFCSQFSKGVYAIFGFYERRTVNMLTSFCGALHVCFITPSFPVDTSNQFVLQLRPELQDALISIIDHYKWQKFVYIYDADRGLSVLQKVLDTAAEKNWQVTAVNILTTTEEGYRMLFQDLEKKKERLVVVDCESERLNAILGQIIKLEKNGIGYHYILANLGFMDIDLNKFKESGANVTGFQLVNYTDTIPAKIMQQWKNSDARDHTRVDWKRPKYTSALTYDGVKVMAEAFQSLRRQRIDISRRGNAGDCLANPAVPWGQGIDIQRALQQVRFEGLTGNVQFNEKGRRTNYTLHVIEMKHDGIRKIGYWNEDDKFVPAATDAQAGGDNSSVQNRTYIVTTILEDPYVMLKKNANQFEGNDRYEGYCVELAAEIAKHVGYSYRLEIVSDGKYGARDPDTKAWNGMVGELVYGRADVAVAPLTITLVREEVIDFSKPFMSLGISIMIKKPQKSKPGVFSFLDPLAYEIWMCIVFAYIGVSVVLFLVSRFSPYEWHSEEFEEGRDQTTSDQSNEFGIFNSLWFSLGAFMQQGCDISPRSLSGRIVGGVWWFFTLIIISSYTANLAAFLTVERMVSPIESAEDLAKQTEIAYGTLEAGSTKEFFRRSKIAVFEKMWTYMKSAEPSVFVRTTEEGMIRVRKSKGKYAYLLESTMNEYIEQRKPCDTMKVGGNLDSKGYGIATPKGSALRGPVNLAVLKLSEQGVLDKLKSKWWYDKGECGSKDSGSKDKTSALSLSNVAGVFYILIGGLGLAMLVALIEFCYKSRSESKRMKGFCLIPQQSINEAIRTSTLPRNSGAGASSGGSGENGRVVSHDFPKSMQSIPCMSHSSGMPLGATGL
T1 sequence (Q9Y698 whole entry partner): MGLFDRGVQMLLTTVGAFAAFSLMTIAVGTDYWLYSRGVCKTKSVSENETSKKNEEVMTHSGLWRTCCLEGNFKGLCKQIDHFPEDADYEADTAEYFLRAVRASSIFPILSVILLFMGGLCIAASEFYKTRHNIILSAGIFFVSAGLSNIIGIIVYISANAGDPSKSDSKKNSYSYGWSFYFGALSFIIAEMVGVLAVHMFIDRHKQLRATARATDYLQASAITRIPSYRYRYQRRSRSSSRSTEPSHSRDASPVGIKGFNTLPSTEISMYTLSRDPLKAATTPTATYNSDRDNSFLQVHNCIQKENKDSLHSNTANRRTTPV

For `O=C(c1ccc(-c2nccc3c2nc(C(F)(F)F)n3CC(F)F)cc1F)N1CCOCC1` [Example 10, (4-(1-(2,2-difluoroethyl)-2-(trifluoromethyl)-1H-imidazo[4,5-c]pyridin-4-yl)-2-fluorophenyl)(morpholin-4-yl)methanone], the activation at 30 µM on human GluR1 flip was 90.5%. Further, in the assay with Long Evans rats, the “Novel Object Interaction (%)” value amounted to 56.32 ± 1.56% and the “novel object interaction (result in words)” value is recorded as “increased”.
As to `O=C(c1ncc(-c2cccc3c2nc(C(F)(F)F)n3CC(F)F)cc1F)N1CCOCC1` [Example 35, (5-(1-(2,2-difluoroethyl)-2-(trifluoromethyl)-1H-benzimidazol-4-yl)-3-fluoropyridin-2-yl)(morpholin-4-yl)methanone], the activation at 30 µM at human GluR1 flip was 81.2%. For the same compound, in the assay on Long Evans rats, the “Novel Object Interaction (%)” value is listed as 61.28 ± 2.35% and the “novel object interaction (result in words)” value is given as “increased”.
Turning to `O=C(c1ccc(-c2c(F)ccc3c2nc(C(F)(F)F)n3CC(F)F)cc1)N1CCOCC1` [Example 36, (4-(1-(2,2-difluoroethyl)-5-fluoro-2-(trifluoromethyl)-1H-benzimidazol-4-yl)phenyl)(morpholin-4-yl)methanone], the activation at 30 µM on human GluR1 flip worked out at 93.5%.
As to `CO[C@@H]1CCN(C(=O)c2ccc(-c3nccc4c3nc(C(F)(F)F)n4CC(F)F)cc2F)C1` [Example 37, (4-(1-(2,2-difluoroethyl)-2-(trifluoromethyl)-1H-imidazo[4,5-c]pyridin-4-yl)-2-fluorophenyl)((3R)-3-methoxypyrrolidin-1-yl)methanone], at human GluR1 flip, the activation at 30 µM came out at 89.8%.
With `Cc1cc2c(nc(C(F)(F)F)n2CC(F)F)c(-c2ccc(C(=O)N3CCOCC(F)(F)C3)c(F)c2)n1` [Example 38, (4-(1-(2,2-difluoroethyl)-6-methyl-2-(trifluoromethyl)-1H-imidazo[4,5-c]pyridin-4-yl)-2-fluorophenyl)(6,6-difluoro-1,4-oxazepan-4-yl)methanone], the activation at 30 µM at human GluR1 flip worked out at 100%.
On the same count and under the same terms, with `O=C(c1ccc(-c2cccc3c2nc(C(F)(F)F)n3CC(F)F)cn1)N1CCOCC(F)(F)C1` [Example 39, (5-(1-(2,2-difluoroethyl)-2-(trifluoromethyl)-1H-benzimidazol-4-yl)pyridin-2-yl)(6,6-difluoro-1,4-oxazepan-4-yl)methanone] the figure was 110%; with `O=C(c1ccc(-c2nccc3c2nc(C(F)(F)F)n3CC(F)F)c(F)c1F)N1CCOCC1` [Example 42, (4-(1-(2,2-difluoroethyl)-2-(trifluoromethyl)-1H-imidazo[4,5-c]pyridin-4-yl)-2,3-difluorophenyl)(morpholin-4-yl)methanone], 83.9%.
On the same count and under the same terms, with `C[C@@H]1CN(C(=O)c2ccc(-c3nccc4c3nc(C(F)(F)F)n4CC(F)F)cc2F)CCO1` [Example 44, (4-(1-(2,2-difluoroethyl)-2-(trifluoromethyl)-1H-imidazo[4,5-c]pyridin-4-yl)-2-fluorophenyl)((2R)-2-methylmorpholin-4-yl)methanone] the figure was 85.5%.
Still for that read-out and setting: with `O=C(c1ccc(-c2cccc3c2nc(C(F)(F)F)n3CC(F)F)nc1)N1CCOCC(F)(F)C1` [Example 46, (6-(1-(2,2-difluoroethyl)-2-(trifluoromethyl)-1H-benzimidazol-4-yl)pyridin-3-yl)(6,6-difluoro-1,4-oxazepan-4-yl)methanone] the figure was 77%.
With `O=C(c1ccc(-c2nccc3c2nc(C(F)(F)F)n3CC(F)F)cc1F)N1CCOCC2(CC2)C1` [Example 48, (4-(1-(2,2-difluoroethyl)-2-(trifluoromethyl)-1H-imidazo[4,5-c]pyridin-4-yl)-2-fluorophenyl)(5-oxa-8-azaspiro[2.6]non-8-yl)methanone], the activation at 30 µM at human GluR1 flip was found to be 80.2%.
Take `O=C(c1ccc(-c2nccc3c2nc(C(F)(F)F)n3CC(F)F)cc1)N1CCOCC(F)(F)C1` [Example 50, (4-(1-(2,2-difluoroethyl)-2-(trifluoromethyl)-1H-imidazo[4,5-c]pyridin-4-yl)phenyl)(6,6-difluoro-1,4-oxazepan-4-yl)methanone]: the activation at 30 µM at human GluR1 flip was determined as 122%.
On to `O=C(c1ccc(-c2cccc3c2nc(C(F)(F)F)n3CC(F)F)c(F)c1)N1CCOCC1` [Example 51, (4-(1-(2,2-difluoroethyl)-2-(trifluoromethyl)-1H-benzimidazol-4-yl)-3-fluorophenyl)(morpholin-4-yl)methanone], for which, on human GluR1 flip, the activation at 30 µM worked out at 113%.
On the same count and under the same terms, with `COC1CCN(C(=O)c2ccc(-c3nccc4c3nc(C(F)(F)F)n4CC(F)F)cc2F)CC1` [Example 52, (4-(1-(2,2-difluoroethyl)-2-(trifluoromethyl)-1H-imidazo[4,5-c]pyridin-4-yl)-2-fluorophenyl)(4-methoxypiperidin-1-yl)methanone] the figure was 67.1%; with `O=C(c1ccc(-c2nccc3c2nc(C(F)(F)F)n3CC(F)F)c(F)c1)N1CCOCC1` [Example 53, (4-(1-(2,2-difluoroethyl)-2-(trifluoromethyl)-1H-imidazo[4,5-c]pyridin-4-yl)-3-fluorophenyl)(morpholin-4-yl)methanone], 69%.
